This note sets out measurements from patent publication US10130590B2, “Methods of treating cancer with atovaquone-related compounds” (DANA-FARBER CANCER INSTITUTE, INC., priority 2013, dated 2018).

The assay concerns JAK family members. Kind of assay: In vitro kinase assays (Invitrogen SelectScreen). It counts as biochemical. Conditions: atovaquone 15 μM. The procedure:
FIG. 15 contains a bar graph quantifying kinase activity (expressed as percent of vehicle) for the indicated kinases (JAK1, JAK2, JAK3, TYK2, SRC) determined using in vitro kinase assays (Invitrogen SelectScreen) and following treatment with atovaquone (AQ) (15 μM) or JAK inhibitor 1 (0.5 μM).
To understand how atovaquone inhibits STAT3 phosphorylation, the possibility that atovaquone decreases the kinase activity of JAKs, which are responsible for STAT3 activation in the systems previously tested was considered. To assess kinase activity, the extent of kinase auto-phosphorylation, which provides a cellular readout of kinase activity, was first analyzed. […] In particular, U266 cells were treated with atovaquone (15 μM) or JAK inhibitor 1(1 μM) for 1 hour, followed by lysis and immunoprecipitation to TYK2. The blot was probed with a pan-phospho-tyrosine antibody (FIG. 14A). Due to technical limitations, tyrosine phosphorylation of other JAK family members was not detected in U266 cells. Next, HEL cells were treated with atovaquone (20 μM) or JAK inhibitor 1 (1 μM) for 6 hours, followed by lysis and immunoprecipitation to JAK2, which was selected because these cells harbor mutant JAK2-V617F. The blot was probed with a pan-phospho-tyrosine antibody, as well as antibodies specific to phospho-Tyr570 and phospho-Tyr1007/1008 (FIG. 14B). […]

As for `O=C1C(O)=C([C@H]2CC[C@H](c3ccc(Cl)cc3)CC2)C(=O)c2ccccc21` [atovaquone, trans-2-[4-(4-chlorophenyl)cyclohexyl]-3-hydroxy-1,4-naphthalenedione], the “in vitro kinase activity” value is “no inhibition”.
